Source: US10381110B2, “Molecules” (University of Dundee, priority 2010, dated 2019)
Where a name gives a salt, the structure may show the parent alone. Read-outs that look alike come from different tables or passages of the source.

Key:
[1] = target: T1, 5HT1a (Homo sapiens, UniProt P08908); assay: Secondary radioligand binding assay (Ki); details: for α1/D2: Table 24: Selectivity of 5HT1A over average of α1 Receptors; for α1A/D2 / α1B/D2 / α1D/D2: Table 24: Selectivity of 5HT1A over α1 Receptors, ratio of Ki
T1 sequence (P08908 1-422): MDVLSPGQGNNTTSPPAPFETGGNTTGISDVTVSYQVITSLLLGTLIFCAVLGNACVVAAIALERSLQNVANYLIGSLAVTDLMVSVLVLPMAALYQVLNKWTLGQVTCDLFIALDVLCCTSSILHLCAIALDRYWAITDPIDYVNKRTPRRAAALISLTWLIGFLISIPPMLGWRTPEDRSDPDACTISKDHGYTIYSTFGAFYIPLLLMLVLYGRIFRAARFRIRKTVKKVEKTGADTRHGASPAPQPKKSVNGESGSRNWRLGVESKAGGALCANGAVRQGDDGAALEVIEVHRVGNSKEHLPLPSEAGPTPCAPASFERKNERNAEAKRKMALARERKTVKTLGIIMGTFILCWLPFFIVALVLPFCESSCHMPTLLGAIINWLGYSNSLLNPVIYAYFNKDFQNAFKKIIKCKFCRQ
Description: (§1) Assay Buffer: Standard Binding Buffer (50 mM Tris-HCl, 10 mM MgCl2, 1 mM EDTA, pH 7.4)
(§2) Membrane Fraction Source: Transiently or stably transfected cell lines (e.g., HEK293, COS, CHO, NIH3T3)
(§3) Radioligand is diluted to five times the assay concentration (see Table 18) in Standard Binding Buffer. Typically, the assay concentration of radioligand is a value between one half the KD and the KD of a particular radioligand at its target. 50 μl aliquots of radioligand are dispensed into the wells of a 96-well plate containing 100 μl of Standard Binding Buffer. Then, duplicate 50 μl aliquots of the test and reference compound dilutions are added.
(§4) The 250 μl reactions are incubated at room temperature and shielded from light (to prevent photolysis of light-sensitive ligands) for 1.5 hours, then harvested by rapid filtration onto Whatman GF/B glass fiber filters pre-soaked with 0.3% polyethyleneimine using a 96-well Brandel harverster. Four rapid 500 μl washes are performed with chilled Standard Binding Buffer to reduce non-specific binding. Filters are placed in 6 ml scintillation tubes and allowed to dry overnight. The next day, 4 ml of EcoScint scintillation cocktail (National Diagnostics) are added to each tube. The tubes are capped, labeled, and counted by liquid scintillation counting. […] The filter mats are dried, then scintillant is melted onto the filters and the radioactivity retained on the filters is counted in a Microbeta scintillation counter.
(§5) Raw data (dpm) representing total radioligand binding (i.e. specific+non-specific binding) are plotted as a function of the logarithm of the molar concentration of the competitor (i.e. test or reference compound).

[2] = target: T2, α1A (Alpha1A) (Homo sapiens, UniProt P35348); assay: Secondary radioligand binding assay (Ki)
T2 sequence (P35348 1-466): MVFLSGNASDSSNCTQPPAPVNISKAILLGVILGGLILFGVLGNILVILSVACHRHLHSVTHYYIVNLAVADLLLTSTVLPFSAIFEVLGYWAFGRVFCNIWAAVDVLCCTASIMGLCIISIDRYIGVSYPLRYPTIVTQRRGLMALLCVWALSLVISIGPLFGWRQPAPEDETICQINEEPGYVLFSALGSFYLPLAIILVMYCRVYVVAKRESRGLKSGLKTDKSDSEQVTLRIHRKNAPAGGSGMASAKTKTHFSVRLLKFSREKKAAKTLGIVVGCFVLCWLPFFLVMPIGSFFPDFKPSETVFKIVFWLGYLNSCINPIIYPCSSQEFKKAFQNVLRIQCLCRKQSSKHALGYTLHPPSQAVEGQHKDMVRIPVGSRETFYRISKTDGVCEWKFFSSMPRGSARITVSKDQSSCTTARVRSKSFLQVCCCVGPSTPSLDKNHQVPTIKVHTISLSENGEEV
Description: as §3, §4, §5
Adrenergic Receptors: α1A, α1B, α2A, α2B, α2C, β1, β2, β3
Membrane Fraction Source: Transiently or stably transfected cell lines (e.g. HEK293, COS, CHO, NIH3T3)
The method is carried out in the manner described for the serotonin receptor assay above, except where described below. Eleven dilutions (5× assay concentration) of the test and reference (see Table 20) compounds are prepared in the appropriate buffer by serial dilution, as previously described. Radioligand is diluted to five times the assay concentration (see Table 21) in the appropriate buffer.
The 250 μl reactions are incubated at room temperature and shielded from light (to prevent photolysis of light-sensitive ligands) for 1 hour (for α1 receptors, 40 min for α2 receptors, and 1.5 hours for β receptors), then harvested by rapid filtration onto Whatman GF/B glass fiber filters pre-soaked with 0.3% polyethyleneimine using a 96-well Brandel harverster. Four rapid 500-μl washes are performed with chilled distilled water (for α1 and β receptors) or 0.1% polyethyleneimine (for α2 receptors) to reduce non-specific binding. Filters are placed in 6 ml scintillation tubes and allowed to dry overnight and the samples are treated to obtain data as described above.

[3] = target: 5-HT2B (Homo sapiens, UniProt P41595); assay: Secondary radioligand binding assay (Ki)
Description: as §1, §2, §3, §4, §5

[4] = target: 5-HT5A (Homo sapiens, UniProt P47898); assay: Secondary radioligand binding assay (Ki)
Description: as §1, §2, §3, §4, §5

[5] = target: T1, 5HT1a; assay: Primary radioligand binding assay (NIMH PDSP); details: primary radiobinding assay, [3H]8-OH-DPAT; further: test concentration or dose not given here
[6] = target: T3, Alpha1A (Homo sapiens, UniProt P35348); assay: Primary radioligand binding assay (NIMH PDSP); details: primary radiobinding assay, [3H]Prazosin; further: test concentration or dose not given here
T3 sequence (P35348 1-466): T2 sequence (P35348 1-466)

[7] = target: T4, Alpha1B (Homo sapiens, UniProt P35368); assay: Primary radioligand binding assay (NIMH PDSP); details: primary radiobinding assay, [3H]Prazosin; further: test concentration or dose not given here
T4 sequence (P35368 1-520): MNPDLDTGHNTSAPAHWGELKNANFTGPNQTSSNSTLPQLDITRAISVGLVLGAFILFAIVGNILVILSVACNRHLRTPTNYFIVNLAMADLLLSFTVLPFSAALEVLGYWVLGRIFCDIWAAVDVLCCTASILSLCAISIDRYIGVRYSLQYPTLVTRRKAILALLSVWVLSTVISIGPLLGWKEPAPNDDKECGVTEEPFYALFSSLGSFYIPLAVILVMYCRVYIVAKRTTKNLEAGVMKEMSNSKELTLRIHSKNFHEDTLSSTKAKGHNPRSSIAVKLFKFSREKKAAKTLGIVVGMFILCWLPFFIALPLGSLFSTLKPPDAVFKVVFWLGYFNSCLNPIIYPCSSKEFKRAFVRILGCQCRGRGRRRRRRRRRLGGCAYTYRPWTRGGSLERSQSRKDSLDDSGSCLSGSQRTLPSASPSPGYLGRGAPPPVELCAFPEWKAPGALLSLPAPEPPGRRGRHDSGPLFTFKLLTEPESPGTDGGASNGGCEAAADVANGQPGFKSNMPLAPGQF

[8] = target: dopamine D1 (Homo sapiens, UniProt P21728); assay: Primary radioligand binding assay (NIMH PDSP); details: primary radiobinding assay, [3H]SCH233930; further: test concentration or dose not given here
[9] = target: dopamine D3 (Homo sapiens, UniProt P35462); assay: Primary radioligand binding assay (NIMH PDSP); details: primary radiobinding assay, N-methylspiperone; further: test concentration or dose not given here
[10] = target: T5, dopamine D4 (Homo sapiens, UniProt P21917); assay: Primary radioligand binding assay (NIMH PDSP); details: primary radiobinding assay, N-methylspiperone; further: test concentration or dose not given here
T5 sequence (P21917 1-419): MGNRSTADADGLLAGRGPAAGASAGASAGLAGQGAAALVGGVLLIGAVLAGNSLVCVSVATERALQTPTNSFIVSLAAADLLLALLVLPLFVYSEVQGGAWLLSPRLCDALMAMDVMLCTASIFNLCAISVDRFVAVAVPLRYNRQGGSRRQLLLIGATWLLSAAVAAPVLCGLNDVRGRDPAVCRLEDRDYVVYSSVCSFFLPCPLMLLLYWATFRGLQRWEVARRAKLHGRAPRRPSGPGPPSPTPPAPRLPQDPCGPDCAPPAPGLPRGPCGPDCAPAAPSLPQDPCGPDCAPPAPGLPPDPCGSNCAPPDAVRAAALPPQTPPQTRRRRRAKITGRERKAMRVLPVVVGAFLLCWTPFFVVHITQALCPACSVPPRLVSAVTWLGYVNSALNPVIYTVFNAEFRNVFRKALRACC

[11] = target: dopamine D5 (Homo sapiens, UniProt P21918); assay: Primary radioligand binding assay (NIMH PDSP); details: primary radiobinding assay, [3H]SCH233930; further: test concentration or dose not given here
[12] = read-out: Experimental Receptor Binding Data-Ki ALPHA_1A, Table 25, GPCR panel

Chain of dopamine D3 (P35462 whole entry): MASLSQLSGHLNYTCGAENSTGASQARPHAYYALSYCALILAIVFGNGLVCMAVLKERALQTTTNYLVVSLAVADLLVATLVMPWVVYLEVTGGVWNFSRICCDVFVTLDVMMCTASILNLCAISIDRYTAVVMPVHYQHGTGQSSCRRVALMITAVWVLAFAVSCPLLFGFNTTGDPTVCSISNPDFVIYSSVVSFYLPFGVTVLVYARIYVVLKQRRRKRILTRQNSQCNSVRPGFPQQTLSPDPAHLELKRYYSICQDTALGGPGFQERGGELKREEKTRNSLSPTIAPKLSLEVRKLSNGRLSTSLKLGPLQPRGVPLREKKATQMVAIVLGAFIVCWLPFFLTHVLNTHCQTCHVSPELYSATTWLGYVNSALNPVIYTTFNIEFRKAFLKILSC
Chain of 5-HT5A (P47898 whole entry, species assumed): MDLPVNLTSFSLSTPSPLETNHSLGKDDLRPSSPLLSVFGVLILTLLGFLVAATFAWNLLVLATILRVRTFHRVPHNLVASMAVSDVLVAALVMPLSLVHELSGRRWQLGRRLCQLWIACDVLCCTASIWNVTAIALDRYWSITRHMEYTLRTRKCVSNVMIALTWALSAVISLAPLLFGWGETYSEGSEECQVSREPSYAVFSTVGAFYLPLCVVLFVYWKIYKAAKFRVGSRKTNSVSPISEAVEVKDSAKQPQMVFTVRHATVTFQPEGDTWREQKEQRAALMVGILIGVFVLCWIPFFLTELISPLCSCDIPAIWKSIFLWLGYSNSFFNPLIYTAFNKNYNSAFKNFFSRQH
Chain of dopamine D1 (P21728 whole entry): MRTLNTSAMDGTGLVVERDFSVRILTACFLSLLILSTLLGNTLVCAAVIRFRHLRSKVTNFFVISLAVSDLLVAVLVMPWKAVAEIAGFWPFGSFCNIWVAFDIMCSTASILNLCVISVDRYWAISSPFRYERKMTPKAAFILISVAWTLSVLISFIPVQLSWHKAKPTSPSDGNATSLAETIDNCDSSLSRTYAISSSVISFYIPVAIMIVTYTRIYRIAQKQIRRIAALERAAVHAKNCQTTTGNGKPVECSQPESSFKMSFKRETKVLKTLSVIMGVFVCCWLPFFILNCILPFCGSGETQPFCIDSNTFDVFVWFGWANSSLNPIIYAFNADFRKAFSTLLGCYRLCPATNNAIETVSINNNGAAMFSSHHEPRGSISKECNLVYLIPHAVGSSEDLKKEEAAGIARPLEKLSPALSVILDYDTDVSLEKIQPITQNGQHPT
Chain of dopamine D5 (P21918 whole entry): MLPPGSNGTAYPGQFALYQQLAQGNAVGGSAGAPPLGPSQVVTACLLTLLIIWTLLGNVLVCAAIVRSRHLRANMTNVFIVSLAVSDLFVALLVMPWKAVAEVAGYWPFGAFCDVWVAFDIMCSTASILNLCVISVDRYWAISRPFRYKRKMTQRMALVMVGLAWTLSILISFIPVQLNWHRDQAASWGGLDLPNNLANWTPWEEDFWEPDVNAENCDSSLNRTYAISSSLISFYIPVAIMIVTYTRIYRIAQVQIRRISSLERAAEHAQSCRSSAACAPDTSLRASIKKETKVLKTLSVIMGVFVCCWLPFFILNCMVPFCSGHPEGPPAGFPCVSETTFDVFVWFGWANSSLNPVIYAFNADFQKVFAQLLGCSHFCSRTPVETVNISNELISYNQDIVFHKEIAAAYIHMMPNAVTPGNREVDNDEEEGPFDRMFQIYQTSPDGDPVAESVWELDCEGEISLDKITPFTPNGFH
Chain of 5-HT2B (P41595 whole entry, species assumed): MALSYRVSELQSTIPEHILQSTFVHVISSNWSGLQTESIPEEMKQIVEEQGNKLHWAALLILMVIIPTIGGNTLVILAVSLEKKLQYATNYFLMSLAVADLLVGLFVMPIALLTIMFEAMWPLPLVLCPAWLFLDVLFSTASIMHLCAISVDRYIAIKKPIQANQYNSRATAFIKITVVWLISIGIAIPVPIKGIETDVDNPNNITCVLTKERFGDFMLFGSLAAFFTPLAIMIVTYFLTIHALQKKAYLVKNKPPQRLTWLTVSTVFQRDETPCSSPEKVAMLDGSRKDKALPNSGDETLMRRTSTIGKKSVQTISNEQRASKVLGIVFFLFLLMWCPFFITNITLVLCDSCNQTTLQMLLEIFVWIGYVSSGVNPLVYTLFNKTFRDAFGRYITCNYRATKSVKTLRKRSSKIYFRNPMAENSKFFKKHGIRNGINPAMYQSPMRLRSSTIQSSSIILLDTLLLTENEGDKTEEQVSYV

Row | Structure (SMILES) | Ki [1] [nM] | α1/D2 [1] | α1A/D2 [1] | α1B/D2 [1] | α1D/D2 [1] | Ki [2] [nM] | Ki [3] [nM] | Ki [4] [nM] | 5ht1a (% inh) [5] [% inh] | Alpha1A (% inh) [6] [% inh] | Alpha1B (% inh) [7] [% inh] | D1 (% inh) [8] [% inh] | D3 (% inh) [9] [% inh] | D4 (% inh) [10] [% inh] | D5 (% inh) [11] [% inh] | Ki ([1]; read-out: Ki 5HT1A) [nM] | Ki [2, 12] [nM] | Ki ([2]; read-out: Kiα1A) [nM] | also measured
1 | COc1ccc2c(c1)C(=O)N(CCN1CCN(c3ccccc3OC)CC1)C2 [GFR-VII-280-HCl] | 2.4 | 5.9 | 3.5 | 12.1 | 2.1 | 8.5 | 242 | 2490 | 92 | 101.5 | 101 | 30 | 95.7 | 95.9 | 6 | – | – | – | –
2 | COc1ccc2c(c1)C(=O)N(CCN1CCN(c3ccccc3OC)CC1)C2 [GFR-VII-280] | – | 6.4 | 4.5 | 11.1 | 3.5 | – | – | – | 92.4 | 101.2 | 104.4 | 29.3 | 98.1 | 97.2 | 21.8 | 3.5 | 15.9 | 15.9 | Ki ([1]; read-out: Experimental Receptor Binding Data-Ki 5HT1A, Table 25, GPCR panel): 3.5 nM; Ki ([3]; read-out: Experimental Receptor Binding Data-Ki 5HT2B, Table 25, GPCR panel): 160 nM; Ki ([4]; read-out: Experimental Receptor Binding Data-Ki 5HT5A, Table 25, GPCR panel): 2150 nM
3 | COc1cc2c(cc1OC)C(=O)N(CCCCN1CCN(c3ccccc3OC)CC1)C2 [GFR-VII-285] | 23 | 0.4 | 0.04 | 0.8 | 0.2 | – | 41 | 2440 | 93.3 | 102.7 | 101.5 | 91.3 | 100.5 | 91.6 | 75.1 | – | 0.9 | 0.9 | –
4 | COc1ccc2c(c1)C(=O)N(CCCN1CCN(c3ccccc3OC)CC1)C2 [GFR-VII-273] | 6.5 | 24.0 | 10.0 | 49.7 | 12.5 | – | 19 | 2900 | 92.5 | 102.2 | 102.5 | 49.5 | 94.1 | 99.6 | 31.8 | – | 64.9 | 64.9 | –
5 | CC1Cc2ccccc2N1C(=O)CN1CCN(Cc2ccccc2)CC1 (stereo not shown) [STT-00185638, 2-[-4-(benzyl)-piperazin-1-yl]-1-(2-methy-2,3-dihydro-indol-1-yl)-ethanone] | 7080 | – | – | – | – | 2060 | 879 | 6770 | 64.9 | 69.1 | 16 | 50.8 | 63.6 | 99.4 | 9.7 | – | – | – | –
6 | COc1ccc2c(c1)CN(CCCN1CCN(c3ccccc3OC)CC1)C2=O [GFR-VII-290] | – | 12.7 | 3.2 | 32.0 | 2.9 | – | 117 | 2470 | 98.3 | 99.1 | 52.4 | 54.5 | 94.7 | 97.3 | 32.5 | 19 | 59.9 | 59.9 | –
